In patent US20240317754A1 (priority 2020, published 2024):

Tests used:
Test in all cases: microbe, parasite or virus in culture
Type in all cases: cell-based
SARS-CoV replicon = details: Severe acute respiratory syndrome coronavirus, HEK-293T, 60 h
SARS-CoV-2 replicon = details: HEK293T cells; for antiviral activity relative to GS-441524: in words; for IC50 / inhibition at 10 µM: Severe acute respiratory syndrome coronavirus 2, HEK-293T, 60 h
SARS-CoV-2 (B.1) = details: Severe acute respiratory syndrome coronavirus 2, Vero C1008, 48 h

Compound	inhibition at 10 µM (SARS-CoV replicon) [%]	IC50 (SARS-CoV-2 replicon) [nM]	inhibition at 10 µM (SARS-CoV-2 replicon) [%]	also measured
CC(C)C(=O)Nc1ncnn2c([C@]3(C#N)O[C@H](COC(=O)C(C)C)[C@@H](OC(=O)C(C)C)[C@H]3OC(=O)C(C)C)ccc12 [ATV001, (2R,3R,4R,5R)-2-cyano-2-(4-isobutyramidopyrrolo[2,1-f][1,2,4]triazin-7-PGP-yl)-5-((isobutyryloxy)methyl)tetrahydrofuran-3,4-diyl bis(2-methylpropanoate)]	66.8	> 50000		antiviral activity relative to GS-441524 (SARS-CoV-2 replicon): significantly lower than that of GS-441524
CC(=O)Nc1ncnn2c([C@]3(C#N)O[C@H](COC(C)=O)[C@@H](OC(C)=O)[C@H]3OC(C)=O)ccc12 [ATV002, (2R,3R,4R,5R)-2-(4-acetamidopyrrolo[2,1-f][1,2,4]triazin-7-yl)-5-(acetoxymethyl)-2-cyanotetrahydrofuran-3,4-diyl diacetate]	61	> 50000		antiviral activity relative to GS-441524 (SARS-CoV-2 replicon): significantly lower than that of GS-441524
CC(=O)OC[C@H]1O[C@@](C#N)(c2ccc3c(N)ncnn23)[C@H](OC(C)=O)[C@@H]1OC(C)=O [ATV003, (2R,3R,4R,5R)-5-(acetoxymethyl)-2-(4-aminopyrrolo[2,1-f][1,2,4]triazin-7-yl)-2-cyanotetrahydrofuran-3,4-diyl diacetate]	98.8	830	97.6	IC50 (SARS-CoV replicon): 910 nM
CC(C)C(=O)OC[C@H]1O[C@@](C#N)(c2ccc3c(N)ncnn23)[C@H](OC(=O)C(C)C)[C@@H]1OC(=O)C(C)C [ATV004, (2R,3R,4R,5R)-2-(4-aminopyrrolo[2,1-f][1,2,4]triazin-7-yl)-2-cyano-5-((isobutyryloxy)methyl)tetrahydrofuran-3,4-diyl bis(2-methylpropanoate)]		680	97.5	inhibition at 5 µM (SARS-CoV replicon): 91.8%; antiviral activity relative to GS-441524 (SARS-CoV-2 replicon): improved
CCCCCOC(=O)Nc1ncnn2c([C@]3(C#N)O[C@H](CO)[C@@H](O)[C@H]3O)ccc12 [ATV005, Pentyl (7-((2R,3R,4S,5R)-2-cyano-3,4-dihydroxy-5-(hydroxymethyl)tetrahydrofuran-2-yl)pyrrolo[2,1-f][1,2,4]triazin-4-yl)carbamate]	73.3	> 50000		
CC(=O)OC[C@H]1O[C@@](C#N)(c2ccc3c(N)ncnn23)[C@H](O)[C@@H]1O [ATV007, ((2R,3S,4R,5R)-5-(4-aminopyrrolo[2,1-f][1,2,4]triazin-7-yl)-5-cyano-3,4-dihydroxytetrahydrofuran-2-yl)methyl acetate]			91.6	
CCC(=O)OC[C@H]1O[C@@](C#N)(c2ccc3c(N)ncnn23)[C@H](O)[C@@H]1O [ATV008, ((2R,3S,4R,5R)-5-(4-aminopyrrolo[2,1-f][1,2,4]triazin-7-yl)-5-cyano-3,4-dihydroxytetrahydrofuran-2-yl)methyl propionate]			98.2	
CCCC(=O)OC[C@H]1O[C@@](C#N)(c2ccc3c(N)ncnn23)[C@H](O)[C@@H]1O [ATV009, ((2R,3S,4R,5R)-5-(4-aminopyrrolo[2,1-f][1,2,4]triazin-7-yl)-5-cyano-3,4-dihydroxytetrahydrofuran-2-yl)methyl butyrate]		220	98.8	antiviral activity relative to GS-441524 (SARS-CoV-2 replicon): improved; IC50 (SARS-CoV-2 (B.1)): 1330 nM
N#C[C@@]1(c2ccc3c(N)ncnn23)O[C@H](COC(=O)C2CC2)[C@@H](O)[C@H]1O [ATV012, ((2R,3S,4R,5R)-5-(4-aminopyrrolo[2,1-f][1,2,4]triazin-7-yl)-5-cyano-3,4-dihydroxytetrahydrofuran-2-yl)methyl cyclopropanecarboxylate]			97.1	
N#C[C@@]1(c2ccc3c(N)ncnn23)O[C@H](COC(=O)C2CCCC2)[C@@H](O)[C@H]1O [ATV015, ((2R,3S,4R,5R)-5-(4-aminopyrrolo[2,1-f][1,2,4]triazin-7-yl)-5-cyano-3,4-dihydroxytetrahydrofuran-2-yl)methyl cyclopentanecarboxylate]		710	97.9	
N#C[C@@]1(c2ccc3c(N)ncnn23)O[C@H](COC(=O)CC(F)(F)F)[C@@H](O)[C@H]1O [ATV016, ((2R,3S,4R,5R)-5-(4-aminopyrrolo[2,1-f][1,2,4]triazin-7-yl)-5-cyano-3,4-dihydroxytetrahydrofuran-2-yl)methyl3,3,3-trifluoropropanoate]		830	97.2	
CC(C)[C@@H](N)C(=O)OC[C@H]1O[C@@](C#N)(c2ccc3c(N)ncnn23)[C@H](O)[C@@H]1O [ATV019, ((2R,3S,4R,5R)-5-(4-aminopyrrolo[2,1-f][1,2,4]triazin-7-yl)-5-cyano-3,4-dihydroxytetrahydrofuran-2-yl)methyl D-valinate]	98.6	970	97.2	IC50 (SARS-CoV replicon): 790 nM
CC(C)[C@H](N)C(=O)OC[C@H]1O[C@@](C#N)(c2ccc3c(N)ncnn23)[C@H](O)[C@@H]1O [ATV020, ((2R,3S,4R,5R)-5-(4-aminopyrrolo[2,1-f][1,2,4]triazin-7-yl)-5-cyano-3,4-dihydroxytetrahydrofuran-2-yl)methyl L-valinate]	99.2	2350	99.2	IC50 (SARS-CoV replicon): 1300 nM
N#C[C@@]1(c2ccc3c(N)ncnn23)O[C@H](COC(=O)[C@@H](N)Cc2ccccc2)[C@@H](O)[C@H]1O [ATV021, ((2R,3S,4R,5R)-5-(4-aminopyrrolo[2,1-f][1,2,4]triazin-7-yl)-5-cyano-3,4-dihydroxytetrahydrofuran-2-yl)methyl L-phenylalaninate]			0	
N#C[C@@]1(c2ccc3c(N)ncnn23)O[C@H](COC(=O)[C@H](N)Cc2ccccc2)[C@@H](O)[C@H]1O [ATV022, ((2R,3S,4R,5R)-5-(4-aminopyrrolo[2,1-f][1,2,4]triazin-7-yl)-5-cyano-3,4-dihydroxytetrahydrofuran-2-yl)methyl D-phenylalaninate]			0	
CCC(C)[C@H](N)C(=O)OC[C@H]1O[C@@](C#N)(c2ccc3c(N)ncnn23)[C@H](O)[C@@H]1O (stereo partly drawn) [ATV023, ((2R,3S,4R,5R)-5-(4-aminopyrrolo[2,1-f][1,2,4]triazin-7-yl)-5-cyano-3,4-dihydroxytetrahydrofuran-2-yl)methyl (2S)-2-amino-3-methylpentanoate]		950	98.7	
CCC(C)[C@@H](N)C(=O)OC[C@H]1O[C@@](C#N)(c2ccc3c(N)ncnn23)[C@H](O)[C@@H]1O (stereo partly drawn) [ATV024, ((2R,3S,4R,5R)-5-(4-aminopyrrolo[2,1-f][1,2,4]triazin-7-yl)-5-cyano-3,4-dihydroxytetrahydrofuran-2-yl)methyl (2R)-2-amino-3-methylpentanoate]		860	99.1	
CC(C)C(=O)OC[C@H]1O[C@@](C#N)(c2cc(F)c3c(N)ncnn23)[C@H](O)[C@@H]1O [ATV025, ((2R,3S,4R,5R)-5-(4-amino-5-fluoropyrrolo[2,1-f][1,2,4]triazin-7-yl)-5-cyano-3,4-dihydroxytetrahydrofuran-2-yl)methyl isobutyrate]		890	97.8	
CC1(C)O[C@H]2[C@@H](O1)[C@](C#N)(c1ccc3c(N)ncnn13)O[C@@H]2CO [Intermediate 5 of RDV, reference compound]	75.9	> 50000		
